Where “and” joins values, the source holds several entries; their conditions need not be identical. Equal entries are not always repeated. Marks after values point to notes of the source that are not given here. Residues, ends and D or L forms follow the SMILES beside them. *: point of attachment. Palmitoyl = CCCCCCCCCCCCCCCC(=O)*
Assays:
[1] = In vitro stability in rat plasma; type: in vitro ADME; conditions: 37° C.
Experimental: Sprague-Dawley (SD) rats (male, 180-200 g) were supplied by the Laboratory Animal Services Centre at The Chinese University of Hong Kong. All animal studies were conducted under the approval of the Animal Ethics Committee of The Chinese University of Hong Kong, and were performed in accordance with relevant guidelines and regulations. Blank rat brain homogenate was prepared by ultrasonic probe homogenization (Micoson XL-2000, Misonix, Framingdale, N.Y., USA) of brains collected from the control rats. Blank rat plasma was prepared by centrifugation (8000 rcf for 3.5 min) of blood collected from control rats. […] The mixtures were incubated at 37° C. with 100 rpm in a water bath for 1 or 3 hr. The incubation was terminated by addition twice the volume of acetonitrile and centrifugation at 13000 rcf for 10 min. The supernatant was collected for LC/MS/MS analysis.

DsRedCAG0 Drosophila = assay: Pseudopupil assay in DsRedCAG0 control Drosophila (toxicity of peptide); type: in vivo; conditions: up to 50 μM
Experimental: Because of the aim to develop P3V8 into a potent inhibitor that targets RNA toxicity in degenerating cells within the nervous system, it was assessed whether P3V8 had deleterious effects on neuronal cells by determining lactate dehydrogenase release in the culturing medium of rat cortical neurons.
Flies were raised at 21.5° C. on cornmeal medium supplemented with dry yeast. Fly lines bearing UAS-DsRedCAG0 and UAS-DsRedCAG100 were kind gifts of Professor Nancy Bonini (University of Pennsylvania, USA). The gmr-GAL4 fly line was obtained from Bloomington Drosophila Stock Center. For pseudopupil assay, third instar larvae were fed with various amount of respective peptides dissolved in 2% sucrose solution for 2 hr and then continued to culture in standard fly food at 21.5° C.^38. Pseudopupil assay was performed on 12 day-old adult flies as mentioned previously^39. Images were captured by SPOT Insight CCD camera controlled by the SPOT Advanced software (Diagnostic instruments Inc.). Image processing was performed using the Adobe Photoshop CS software (Adobe). Each experiment was repeated at least 3 times (n=10 fly heads), and consistent results were obtained. […] Viability from egg-to-adult was calculated as the number of adult flies collected divided by the number of eggs examined. […]

[2] = Plasma pharmacokinetic study in SD rat; conditions: for AUC0-last: Intranasal administration (pre-treated with 0.5% chitosan)
Experimental: (§1) SD rats (180-200 g) were anesthetized with an intraperitoneal injection of ketamine (60 mg/kg) and xylazine (6 mg/kg) and received a minor surgery of cannulation with a polythene tube (0.4 mm i.d., 0.8 mm o.d., Harvard Apparatus, Holliston, Mass., USA) in the left jugular vein. The rats received an overnight recovery with free access to food and water. […] For the pharmacokinetic study, after the drug administration, blood samples were collected from the catheter at appropriate time intervals (2, 5, 10, 15, 20, 30, 45, 60, and 90 min). After each collection, 0.2 mL of saline containing 25 IU heparin was injected to compensate for the blood loss. Plasma was collected after centrifugation at 8000 rcf for 3.5 min and stored at −80° C. until analysis. For brain uptake study, at 20 min, the rat was anesthetized and perfused by 500 mL saline, and the whole brain was collected. The brain was wiped by tissue paper to remove excess water, meninges and blood vessels followed by storage at −80° C. until analysis.
Aliquot of plasma sample (80 μL) was mixed with 160 μL acetonitrile. The mixture was vortexed for 1 min and followed by centrifugation at 13000 rcf for 10 min. The supernatant was collect and subjected to LC/MS/MS analysis.
Agilent 6430 Triple Quadrupole LC/MS/MS system (Agilent Technologies, CA, USA) was employed for the analysis. For analysis of P3V8, chromatographic separation was achieved on a SunFire C8 Column (250 mm×4.6 mm, 5 μm). The mobile phase of water containing 0.2% formic acid (A) and acetonitrile (B) was used with a gradient elution (0-5 min, 20-70% B). The flow rate was 0.8 mL/min. Multiple reactions monitoring (MRM) with fragmentation transition of 500 to 129 in positive ion mode was employed for quantization of P3V8. […] Mobile phase of water (A) and acetonitrile (B) was used. The gradient elution for plasma samples was 0-4 min, 30-95% B, and for brain samples was 0-9 min, 10-95% B. The flow rate was 0.8 mL/min.
Plasma concentration verse time profiles were analyzed by WinNonlin (Pharsight Corporation, Mountain View, Calif., USA, Version 2.1) to obtain the pharmacokinetics parameters. Other data were analyzed by one-way ANOVA followed by post hoc Tukey test or unpaired t-test. “*”, “**”, “***” and “****” represent P<0.05, P<0.01, P<0.001 and P<0.0001 respectively, which are considered statistically significant.

DsRedCAG100 flies = assay: Pseudopupil assay in DsRedCAG100 Drosophila (expanded CAG RNA neurodegeneration); type: in vivo; conditions: for suppression of neurotoxicity / retinal degeneration: DsRedCAG100 flies, in words
From the text: Here the DsRedCAG0/100Drosophila model was utilized to investigate the suppressive effects of the P3 analogs on RNA toxicity. In this model, the CAG repeat is located in the 3′ untranslated region of the DsRed reporter gene-=. The transcribed expanded CAG RNA is not translated into polyQ protein, and thus the toxicity is solely attributed to the expression of DsRedCAG100 RNA. In brief, the expression of expanded CAG RNA causes severe retinal degeneration in the animal that can be quantified by a pseudopupil assay^7. Inhibitors that can suppress neurotoxicity will result in the recovery of the number of rhabdomeres within the ommatidium. To test the derivatives, third instar larvae were fed different amounts of peptide dissolved in sucrose solution for 2 hr and then allowed to culture in standard fly food until the flies were 12 days old, at which time they were sacrificed for the pseudopupil assay.
Flies were raised at 21.5° C. on cornmeal medium supplemented with dry yeast. Fly lines bearing UAS-DsRedCAG0 and UAS-DsRedCAG100 were kind gifts of Professor Nancy Bonini (University of Pennsylvania, USA). The gmr-GAL4 fly line was obtained from Bloomington Drosophila Stock Center. For pseudopupil assay, third instar larvae were fed with various amount of respective peptides dissolved in 2% sucrose solution for 2 hr and then continued to culture in standard fly food at 21.5° C.^38. Pseudopupil assay was performed on 12 day-old adult flies as mentioned previously^39. Images were captured by SPOT Insight CCD camera controlled by the SPOT Advanced software (Diagnostic instruments Inc.). Image processing was performed using the Adobe Photoshop CS software (Adobe). Each experiment was repeated at least 3 times (n=10 fly heads), and consistent results were obtained. For viability test of wild-type flies from egg to adult stage, eggs born within 5 hr were collected and cultured in fly food containing 10 or 50 μM of respective peptides at 21.5° C. Viability from egg-to-adult was calculated as the number of adult flies collected divided by the number of eggs examined. Each experiment was repeated for three times (at least 130 eggs were examined in each group). Two batches of independently synthesized peptides were used in the experiments.

[3] = Brain uptake study in SD rat
Experimental: as §1
To prepare brain homogenate, the whole brain of each rat was minced. Saline (2 mL/g brain) was added followed by ultrasonic probe homogenization on ice. For analysis of P3V8, aliquot of brain homogenate (100 μL) was mixed with 200 μL acetonitrile. The mixture was vortexed for 1 min and followed by centrifugation at 13000 rcf for 10 min to collect the supernatant. […]

[4] = Intravenous administration, 3 μmol/kg, SD rats

Molecule	Pecentage of remained ([1]; 500 ng/mL, incubation for 1 hr)	remaining at 1 h, 1000 ng/mL ([1]; male, Sprague-Dawley, rat, 1000 ng/mL, incubation for 1 hr, read-out: Pecentage of remained)	effect on DsRedCAG0 Drosophila (DsRedCAG0 Drosophila)	AUC0-last ([2]; 3 μmol/kg, SD rats)	Cmax [2, 4]	T1/2 [2, 4]	plasma concentration 90 min after dosing ([2]; intravenous, 3 μmol/kg)	suppression of neurotoxicity / retinal degeneration (DsRedCAG100 flies)	tissue level at time molar at 20 min ([3]; Sprague-Dawley, rat, in vivo, iv, 3 umol/kg)	Pecentage of remained ([1]; 2000 ng/mL, incubation for 1 hr)	Pecentage of remained ([1]; 2000 ng/mL, incubation for 3 hr)	remaining at 1 h, 2000 ng/mL ([1]; male, Sprague-Dawley, rat, rat plasma, 2000 ng/mL, incubation for 1 hr, read-out: Pecentage of remained)	T1/2 ([2]; rat, in vivo, iv, 3 umol/kg)	pseudopupil score (DsRedCAG100 flies; 1 μM treatment, 12 day-old flies)	brain concentration ([3]; 20 min after intravenous administration, 3 μmol/kg)
CCCCCCCCCCCCCCCC(=O)N[C@@H](CC(=O)O)C(=O)NCC(=O)N[C@@H](CCCCN)C(=O)N[C@@H](CO)C(=O)N[C@@H](CCCCN)C(=O)NCC(=O)N[C@H](C(=O)N[C@@H](C)C(=O)N[C@@H](Cc1ccc(O)cc1)C(=O)N[C@H](C(=O)N[C@@H](CCC(=O)O)C(=O)N[C@@H](Cc1ccccc1)C(=O)N[C@@H](CCCCN)C(N)=O)[C@@H](C)CC)[C@@H](C)CC [L1P3V8] (Palmitoyl-DGKSKGIAYIEFK-NH2)	88.1 ± 4.9%	98.7 ± 3.9%	no cytotoxic effects	2277 ± 558*** min * nmol/L	10400 ± 1220 nM	17 min	190 nM	suppressed retinal degeneration	0.013 nmol/g	–	–	–	–	–	–
Ac-DGKSKGIAYIEFK-NH2 [P3V8]	–	–	did not show any observable effect	85 ± 32 nmol·min/L	452 ± 22 nM	–	–	significantly suppressed neurotoxicity	–	20.7% and 20.7 ± 3.3%	almost completely degraded	21%	too short to be determined	4.32±0.25	no and not detected

— US10570177B2, “P3 peptidylic inhibitors for treating CAG-repeat RNA toxicity in polyglutamine diseases” (The Chinese University of Hong Kong, priority 2017, dated 2020)
